Here are results for 1 compound from patent publication US20070149485A1, “SELECTED DOSAGE FOR THE TREATMENT OF CARDIOVASCULAR AND RELATED PATHOLOGIES” (Medicure International, Inc., priority 2005, published 2007).

This assay relates to high-risk patients undergoing CABG surgery with cardiopulmonary bypass. Nature of the assay: Cognitive function after CABG surgery, Mini Mental State Exam (MMSE), MEND-CABG trial. It is filed as in vivo, human. The conditions noted are these: for MMSE at POD 30, Mean / MMSE at POD 90, Mean: score 0-30. How it is done:
The ability of P5P to protect against cognitive decline following CABG surgery was evaluated through the administration of a battery of validated psychometric tests pre-operatively, 4 days after surgery, 30 days after surgery, and 90 days after surgery.
A randomized, double-blind placebo-controlled, dose-ranging, parallel-arm multi-center study was undertaken, on high-risk patients undergoing CABG surgery with cardiopulmonary bypass.
Patients were identified as “high risk” if they had two or more of the following risk factors: • Age greater than 65 years; • Diabetes mellitus; • History of congestive heart failure; • History of a previous non-disabling stroke, transient ischemic attack, or carotid endarterectomy; • Prior CABG surgery; • Urgent CABG intervention defined as the need to stay in the hospital (although the patient may be operated on within a normal scheduling routine); • History of myocardial infarction that occurred more than 48 hours but less than 6 weeks prior to CABG surgery; and • Presence of at least one asymptomatic carotid artery stenosis (>50%) either in one or two carotid arteries.
Approximately 900 high risk pre-CABG patients in 42 different treatment centers in North America were screened and randomized to three groups of approximately 300 patients each, prior to their bypass surgery, as follows. Patients were either placed in a control group (placebo), treated with 250 mg/day of P5P, (250 mg/day), or treated with 750 mg/day of P5P (750 mg/day). The first dose of study medication was administered at 3-10 hours prior to CABG surgery. In the event of surgery delay or rescheduling, a second pre-operative dose of P5P was administered so that all patients received study medication 3-10 hours before surgery. Treatment continued for 30 days after surgery (post operative day (POD) 30). Patients received follow-up evaluations up to and including postoperative day (POD) 4, on POD 30 and on POD 90.
Patients were measured to assess change in cognitive function by the effects of P5P on neurological events following CABG surgery by methods of Mini Mental State Exam and psychometric testing (grooved pegboard).
MMSE is a well validated test to screen cognitive function (Folstein, J Psychiatr Res. 1975 Nov.;12(3):189-98). It measures orientation, registration (immediate memory), short-term (but not long-term) memory, and language functioning. The test is scored from 0-30, with scores of 25-30 considered normal, scores of 18-24 indicative of mild cognitive impairment, and scores under 17 indicative of severe impairment (Crum, JAMA. 1993 May 12;269(18):2386-91). This test is appropriate to indicate the presence of cognitive impairment.
The MMSE was administered to all 900 patients at screening, post-operative day (POD) 30, and POD 90. The MMSE score at POD 90 was analyzed using an analysis of covariance (ANOCO) model, adjusting for the MMSE score at screening. […] The results with P5P treatment (either 250 or 750 mg/day) were tabulated in Table 7, according to screening MMSE score.

As for `Cc1ncc(COP(=O)(O)O)c(C=O)c1O` [P5P, 3-hydroxy-2-methyl-5-[(phosphonooxy)methyl]-4-pyridine-carboxaldehyde], the “MMSE at POD 90, Adjusted Mean” value is 27.74 (250 mg/day, MMSE screening = 25, ANOCO p 0.0067 vs placebo); 28.08 (250 mg/day, MMSE screening = 26, ANOCO p 0.0074 vs placebo); 28.42 (250 mg/day, MMSE screening = 27, ANOCO p 0.0116 vs placebo); 28.76 (250 mg/day, MMSE screening = 28, ANOCO p 0.0579 vs placebo); 29.10 (250 mg/day, MMSE screening = 29, ANOCO p 0.7654 vs placebo); 29.44 (250 mg/day, MMSE screening = 30, ANOCO p 0.2726 vs placebo). The “MMSE at POD 90, Adjusted Mean” value is, setting by setting: (750 mg/day, MMSE screening = 25, ANOCO p 0.0664 vs placebo) 27.41; (750 mg/day, MMSE screening = 26, ANOCO p 0.0701 vs placebo) 27.83; (750 mg/day, MMSE screening = 27, ANOCO p 0.0875 vs placebo) 28.25; (750 mg/day, MMSE screening = 28, ANOCO p 0.1926 vs placebo) 28.67; (750 mg/day, MMSE screening = 29, ANOCO p 0.8350 vs placebo) 29.08; (750 mg/day, MMSE screening = 30, ANOCO p 0.4317 vs placebo) 29.50. The “MMSE at POD 30, Mean” value reads like this: (250 mg/day) 28.57; (750 mg/day) 28.79. The “MMSE at POD 90, Mean” value by setting is: (250 mg/day) 28.97; (750 mg/day) 28.99. The “protection against the decline in overall neurocognitive function associated with CABG surgery” value (MEND-CABG trial, 250 or 750 mg/day) is listed as “provided protection”. Also, the “Improvements in MMSE score, 250 mg/day dose group compared with 750 mg/day dose group” value (in particular in patients with lower MMSE scores at screening) is given as “more significant”.
